Source: PMC9863562, “Design, Synthesis, and Biological Evaluation of 2-Mercaptobenzoxazole Derivatives as Potential Multi-Kinase Inhibitors” (Pharmaceuticals, 2023)

Tests used:
Caspase-9 = experiment: Apoptosis-related proteins in HepG2 cells (ELISA), Caspase-9; assay type: cell-based, human
Text: (§1) Compound 6b was selected to investigate the apoptotic markers against the liver cancer cell line (HepG2). […] Typically, Bax, Bcl-2, and caspases contribute to the regulation of apoptotic signaling. Acting as an apoptotic activator (Bax) or inhibitor (Bcl-2), the Bcl-2 family of proteins plays a significant role in apoptosis. The caspase family comprises cysteine proteases that are classified as either executioner—caspase-3, or as initiators—caspase-9 and caspase-8 [40]. […] Nevertheless, considerable downregulation of the anti-apoptotic gene, Bcl-2 (0.26 folds), was described, leading to an increased expression ratio of Bax/Bcl-2 (1→20.53). The Bax/Bcl-2 gene expression ratio can serve as an early predictor for cancer in patients and is a sensitive monitor of cancer progression. […]
(§2) The HepG2 cells were incubated in 96-well plates in triplicates and left for 24 h. […] The treated cells, along with control cells, were then incubated for another 24 h; then, caspases-3 and 9, BAX, and Bcl-2 levels were determined using ELISA assay kits; KHO1091 (Invitrogen^TM, Grand Island, NY, USA), EIA-4860 (DRU International, Inc., Mountainside, NJ, USA), EIA-4487 (DRU International INC., Mountainside, NJ, USA) and 99–0042 (Invitrogen^TM, Grand Island, NY, USA), respectively, according to their manufacturers’ procedures.

HepG2 cells = experiment: Cell-cycle flow cytometry analysis (PI staining); assay type: cell-based, human; details: HepG2, 6b at 6.83 μM, 24 h
Experimental: Programmed cell death is a fundamental cellular program that is inherent in every cell of the human body. One of the most extensively studied forms of programmed cell death is apoptosis, which plays an important role during the various physiological processes and is involved in a variety of pathological conditions. The HepG2 cells were exposed to compound 6b for 24 h and the cell cycle was monitored via flow cytometry; the results are reported in Table 5.
To detect the effect of the synthesized compound, 6b, on cell cycle distribution, flow cytometry analysis was carried out, utilizing propidium iodide (PI) staining. The kit used for the cell cycle flow cytometry analysis was the K101-100 Annexin V-FITC Apoptosis Detection Kit (BioVision, Mountain View, CA, USA). […] Then, the treated cells were fixed in 70% ethanol for 12 h at 4 °C. Following that, the cells were rinsed with cold PBS, incubated with 100 μL RNase A for 0.5 h at 37 °C, and stained with propidium iodide (400 μL) in the dark at RT for an extra 0.5 h. The stained cells were determined, utilizing Epics XLMCL™ flow cytometer equipment (Beckman Coulter, Apeldoorn, Netherlands), then the results were collected and analyzed with the Flowing software (version 2.5.1, Turku Center for Biotechnology, Turku, Finland).

Caspase-3 = experiment: Apoptosis-related proteins in HepG2 cells (ELISA), Caspase-3; assay type: cell-based, human
Text: as §1, §2

Human EGFR = target: T1, Human EGFR (Homo sapiens, UniProt P00533); experiment: In vitro EGFR enzyme assay (ELISA kit); assay type: biochemical
T1 construct: purchased
Experimental: Human CDK2, EGFR, HER2, and VEGFR-2 ELISA kits (Enzyme-Linked-Immunosorbent Serologic Assay) were used during this evaluation. At first, specified antibody proteins were added separately to a 96-well plate, then 0.1 mL of the standard solution or the evaluated molecule was added; these were then incubated for 2.5 h at RT. After rinsing, 100 μL of the ready-made biotin antibody protein was added, then incubated for one extra hour at room temperature and, finally, washed. Next, 100 μL of streptavidin solution was added, incubated at room temperature for 45 min, and then washed. Next, 100 μL of the TMB substrate reagent was added and incubated for 0.5 h at RT, followed by adding 50 μL of the stop solution. The absorbance of the ELISA plate was promptly measured at 450 nm using the ELISA plate reader.

Bax = experiment: Apoptosis-related proteins in HepG2 cells (ELISA), Bax; assay type: cell-based, human
Text: Compound 6b was selected to investigate the apoptotic markers against the liver cancer cell line (HepG2). […] Typically, Bax, Bcl-2, and caspases contribute to the regulation of apoptotic signaling. Acting as an apoptotic activator (Bax) or inhibitor (Bcl-2), the Bcl-2 family of proteins plays a significant role in apoptosis. The caspase family comprises cysteine proteases that are classified as either executioner—caspase-3, or as initiators—caspase-9 and caspase-8 [40]. […] Nevertheless, considerable downregulation of the anti-apoptotic gene, Bcl-2 (0.26 folds), was described, leading to an increased expression ratio of Bax/Bcl-2 (1→20.53). The Bax/Bcl-2 gene expression ratio can serve as an early predictor for cancer in patients and is a sensitive monitor of cancer progression. Collating all the provided evidence, the upregulation of caspase-3, caspase-9, and Bax is clear, while the downregulation of Bcl-2 genes makes it evident that compound 6b induces apoptosis within the liver cancer cell line (HepG2).
The HepG2 cells were incubated in 96-well plates in triplicates and left for 24 h. After 24 h of incubation, the cells were treated with compound 6b at different concentrations, while control cells were only treated with 0.1% DMSO (v/v). The treated cells, along with control cells, were then incubated for another 24 h; then, caspases-3 and 9, BAX, and Bcl-2 levels were determined using ELISA assay kits; KHO1091 (Invitrogen^TM, Grand Island, NY, USA), EIA-4860 (DRU International, Inc., Mountainside, NJ, USA), EIA-4487 (DRU International INC., Mountainside, NJ, USA) and 99–0042 (Invitrogen^TM, Grand Island, NY, USA), respectively, according to their manufacturers’ procedures.

[1] = test system: HepG2, MCF-7, MDA-MB-231 and HeLa cell lines; experiment: MTT cytotoxicity assay, panel of four cell lines; assay type: cell-based; details: Homo sapiens, range over HepG2, MCF-7, MDA-MB-231, HeLa, read-out: IC50 values, range over the tested cell lines
Text: The in vitro cytotoxicity for the final target compounds, 4(a–d), 5(a–f), and 6(a–b), was preliminarily evaluated via the MTT colorimetric assay against a panel of four human cell lines, namely, the hepatocellular carcinoma (HepG2), mammary gland (MCF-7), breast cancer (MDA-MB-231) and epithelioid cervix carcinoma (HeLa).
The cytotoxicity of the target hybrids was examined by an MTT assay against HepG2, HeLa, MCF-7, and MDA-MB-231. At first, the RPMI-1640 medium with 10% fetal bovine serum was used to cultivate the cell lines. Then, antibiotics (penicillin (100 units/mL) and streptomycin (100 µg/mL)) were added in a 37 °C incubator in 5% CO2. The cell lines were seeded in a 96-well plate at a density of 1.0 × 10^4 cells/well at 37 °C under 5% CO2 for 48 h. After incubation, the cells were treated with various concentrations of the synthesized compounds and incubated for an additional 24 h. Following the drug treatment, 20 µL of 5 mg/mL MTT solution was added and incubated for 4 h. To dissolve the purple formazan that had formed, 100 µL dimethyl sulfoxide (DMSO) was added to each well. At a wavelength of 570 nm, the colorimetric assay was recorded and measured, using a plate reader BioTek EXL 800 (Agilent Technologies, Inc., Santa Clara, CA, USA). The percentage of relative cell viability was counted using the following formula (A570 of handled specimens/A570 of the unhandled specimen), multiplied by 100. The results of the cytotoxicity value were presented as the median growth inhibitory concentration (IC50) of the reagents compared to the control.

Bcl-2 = experiment: Apoptosis-related proteins in HepG2 cells (ELISA), Bcl-2; assay type: cell-based, human
Text: as §1, §2

T1 sequence (P00533 25-1210): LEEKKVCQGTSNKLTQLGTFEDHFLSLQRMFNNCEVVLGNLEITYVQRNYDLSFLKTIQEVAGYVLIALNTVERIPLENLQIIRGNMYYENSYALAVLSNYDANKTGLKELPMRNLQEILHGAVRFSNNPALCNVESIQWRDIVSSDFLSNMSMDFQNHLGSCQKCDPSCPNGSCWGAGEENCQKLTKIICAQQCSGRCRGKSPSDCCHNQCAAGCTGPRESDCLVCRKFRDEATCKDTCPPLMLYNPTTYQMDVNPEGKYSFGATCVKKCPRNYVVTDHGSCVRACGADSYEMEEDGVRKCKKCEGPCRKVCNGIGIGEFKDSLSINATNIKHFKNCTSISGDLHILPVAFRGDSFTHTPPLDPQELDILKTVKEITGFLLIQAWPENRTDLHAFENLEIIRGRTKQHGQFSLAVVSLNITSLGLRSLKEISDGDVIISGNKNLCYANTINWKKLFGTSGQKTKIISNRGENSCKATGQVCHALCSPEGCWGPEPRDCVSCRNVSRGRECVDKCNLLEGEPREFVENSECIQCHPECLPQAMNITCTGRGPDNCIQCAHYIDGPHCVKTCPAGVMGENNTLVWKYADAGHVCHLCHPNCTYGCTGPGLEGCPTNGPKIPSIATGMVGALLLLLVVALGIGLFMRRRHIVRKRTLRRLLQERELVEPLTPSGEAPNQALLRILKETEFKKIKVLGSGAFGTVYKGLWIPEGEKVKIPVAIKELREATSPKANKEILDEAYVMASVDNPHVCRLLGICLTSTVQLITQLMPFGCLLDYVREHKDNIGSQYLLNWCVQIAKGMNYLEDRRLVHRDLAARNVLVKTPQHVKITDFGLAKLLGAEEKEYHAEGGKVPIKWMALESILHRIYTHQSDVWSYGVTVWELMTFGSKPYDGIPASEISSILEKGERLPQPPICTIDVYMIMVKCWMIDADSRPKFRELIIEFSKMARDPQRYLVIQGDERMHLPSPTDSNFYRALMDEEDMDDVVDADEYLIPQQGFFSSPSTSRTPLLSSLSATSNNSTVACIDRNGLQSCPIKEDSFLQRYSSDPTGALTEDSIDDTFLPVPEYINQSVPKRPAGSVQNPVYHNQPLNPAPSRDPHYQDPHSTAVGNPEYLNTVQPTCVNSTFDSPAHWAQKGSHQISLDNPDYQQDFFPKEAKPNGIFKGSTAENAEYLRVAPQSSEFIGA

IC50 (Human EGFR): 0.279 ± 0.017 µM
Structure (SMILES): O=C(CSc1nc2ccccc2o1)NN=Cc1ccc[nH]1 (mixture of isomers) [Compound 6b, (E/Z)-N′-((1H-pyrrol-2-yl)methylene)-2-(benzo[d]oxazol-2-ylthio)acetohydrazide]
Caspase-9 Expression (Caspase-9; 24 h treatment, ELISA): 15.82 ± 0.51 pg/mL
Caspase-9 Fold (Caspase-9; versus control HepG2 = 1): 3.5 fold
%G0–G1 (HepG2 cells): 40.37%
%G2/M (HepG2 cells): 31.26%
%Pre–G1 (HepG2 cells): 16.84%
%S (HepG2 cells): 28.37%
Caspase-3 Expression (Caspase-3; 24 h treatment, ELISA): 467.6 ± 24 pg/mL
Caspase-3 Fold (Caspase-3; versus control HepG2 = 1): 5.02 fold
Bax Expression (Bax; 24 h treatment, ELISA): 448.4 ± 15.4 pg/mL
expression ratio of Bax/Bcl-2 (Bax; control = 1): 20.53
Bax Fold (Bax; versus control HepG2 = 1): 5.34 fold
IC50 [1]: 2.14 to 19.3 µM
Bcl-2 Expression (Bcl-2; 24 h treatment, ELISA): 2.822 ± 0.21 pg/mL
Bcl-2 Fold (Bcl-2; versus control HepG2 = 1): 0.26 fold
